Measurements taken from patent US12668589B2, “N-formamidopyrazoline derivative as P2X3 receptor antagonist and use thereof” (HANGZHOU WESTAN PHARMACEUTICAL TECHNOLOGY CO., LTD, priority 2020, dated 2026).

Legend:
Assay type in all cases: cell-based
gpP2X3 = molecular target: T1, gpP2X3 (Cavia porcellus, UniProt H0VWY5); test: Inhibitory activity against P2X3 in guinea pigs (electrophysiological method); details: guinea pig P2X3, electrophysiological method
T1 sequence (H0VWY5 1-391): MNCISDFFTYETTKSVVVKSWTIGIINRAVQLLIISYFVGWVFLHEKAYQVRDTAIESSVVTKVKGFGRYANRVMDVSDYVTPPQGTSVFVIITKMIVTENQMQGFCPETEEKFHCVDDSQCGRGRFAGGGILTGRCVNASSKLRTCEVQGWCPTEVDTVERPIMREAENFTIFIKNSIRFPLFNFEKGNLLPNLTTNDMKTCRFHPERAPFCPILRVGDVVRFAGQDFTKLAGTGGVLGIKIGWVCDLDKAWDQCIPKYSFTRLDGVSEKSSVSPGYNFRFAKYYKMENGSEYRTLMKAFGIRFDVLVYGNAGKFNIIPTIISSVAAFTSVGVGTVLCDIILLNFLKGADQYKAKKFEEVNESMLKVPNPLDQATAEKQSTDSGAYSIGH

rP2X3 = molecular target: T2, rP2X3 (Rattus norvegicus, UniProt P49654); test: Inhibitory activity against P2X3 in rats (electrophysiological method)
T2 construct: expressed in transfected cells; host or cells: HEK293
T2 sequence (P49654 1-397): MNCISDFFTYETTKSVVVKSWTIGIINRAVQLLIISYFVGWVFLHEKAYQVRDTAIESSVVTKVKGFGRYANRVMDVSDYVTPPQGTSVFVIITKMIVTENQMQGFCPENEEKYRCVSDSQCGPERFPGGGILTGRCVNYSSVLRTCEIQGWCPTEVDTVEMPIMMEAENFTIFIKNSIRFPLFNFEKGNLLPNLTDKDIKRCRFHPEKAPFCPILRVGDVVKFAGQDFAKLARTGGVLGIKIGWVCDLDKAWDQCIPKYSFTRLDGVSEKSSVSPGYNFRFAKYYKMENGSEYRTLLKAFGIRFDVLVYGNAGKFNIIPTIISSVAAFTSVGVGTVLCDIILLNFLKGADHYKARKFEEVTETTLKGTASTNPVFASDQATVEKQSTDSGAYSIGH

human PAR-1 = molecular target: T3, human PAR-1 (Homo sapiens, UniProt P25116); test: Inhibitory activity against PAR-1, calcium ion flux fluorescence method (FLIPR); details: HEK293/Ga15 cells expressing human PAR-1, TFLLR-NH2 10 μM, starting concentration 30 μM
T3 construct: host or cells: HEK293/Ga15 recombinant cell line
T3 sequence (P25116 22-425): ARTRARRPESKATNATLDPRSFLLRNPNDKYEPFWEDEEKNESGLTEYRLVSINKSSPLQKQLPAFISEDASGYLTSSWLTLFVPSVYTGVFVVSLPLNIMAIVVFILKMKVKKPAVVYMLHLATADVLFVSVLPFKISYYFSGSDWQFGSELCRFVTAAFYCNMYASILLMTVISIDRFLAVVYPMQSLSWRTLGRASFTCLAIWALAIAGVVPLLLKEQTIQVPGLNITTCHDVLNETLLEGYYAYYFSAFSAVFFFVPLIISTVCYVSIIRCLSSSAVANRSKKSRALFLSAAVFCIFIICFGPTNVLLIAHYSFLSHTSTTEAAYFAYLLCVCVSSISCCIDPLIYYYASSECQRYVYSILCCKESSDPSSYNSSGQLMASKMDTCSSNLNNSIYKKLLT
Protocol: The inhibitory activity of the title compounds against human PAR-1 was determined by a calcium ion flux fluorescence method (an FLIPR method). The method thereof was reported in the literature of Zhong et al. [Zhong et al. J Biomol Struct Dyn, 2017, 35(13):2853].
An HEK293/Ga15 recombinant cell line (HD Biosciences, Shanghai, China) stably expressing human PAR-1 was cultured in a DMEM (Thermo Fisher Scientific, Shanghai) culture solution (containing 10% calf serum, 800 μg/mL G418). Incubator conditions were 37° C. and an air humidity with 5% CO2.
On the first day, 20 μL per well of PAR-1 cells at a concentration of 4E+5 cells/mL were seeded in a 384-well analysis plate (Corning 3712). […] On the second day, a culture solution in each well was poured off. Then, 20 μL of 1×loading dye (2 μM Fluo-8 AM in 1×HBSS with 20 mM HEPES, 1 mM Probenecid, 0.025% Pluronic F-127 assay buffer) was added in each well. The cell analysis plate was cultured for 1 hour at a room temperature.
The compounds were dissolved into 100% DMSO to prepare a 10 mM stock solution, which was stored at −20° C. On the day of use, the compound stock solution was thawed at a room temperature. Each compound was subjected to 1:3 serial dilution at 11 concentration points with a DMEM culture solution with a starting concentration of 30 μM. Each compound was subjected to double dilution for testing. A positive control compound was diluted in the same way with SCH79797 with a starting concentration of 30 μM.
The cell analysis plate was placed in a FLIPR instrument (Molecular Device) and 10 μL of compounds (3× of a final concentration) in a compound plate was added to corresponding wells of the cell analysis plate. After 10 minutes, 10 μL of TFLLR-NH2 (TFA) (a final concentration of 10 μM) was added to each well to stimulate generation of intracellular calcium flux signals. Ca^++-dependent fluorescence signals were continuously monitored at excitation wavelengths of 470/495 nm and emission wavelengths of 515/575 nm to analyze the inhibitory activity of the compounds.
Data were collected and analyzed by using an FLIPR program. The inhibitory (or agonistic) activity of the compounds at each concentration was assessed by fluorescence peaks. IC50 values of the compounds were calculated by using EXCEL and PRISM programs.

| Structure (SMILES) | IC50 (gpP2X3) | IC50 (rP2X3) | IC50 (human PAR-1) |
| --- | --- | --- | --- |
| Cc1ccc(C2=NN(C(=O)N[C@H](C)c3ccc(C(F)(F)F)nc3)C[C@@H]2N2CCOC2=O)cc1 [Compound 22] | 0.297 µM | 0.09 µM | > 30 µM |
| CCOC(=O)N(C)[C@H]1CN(C(=O)N[C@H](C)c2cnc(C(F)(F)F)nc2)N=C1c1ccc(C)cc1 [Compound 4, (S)-4-(N-methyl-N-ethoxycarbonylamino)-3-(4-methylphenyl)-N-((R)-1-(2-(trifluoromethyl)pyrimidin-5-yl)ethyl)-4,5-dihydro-1H-pyrazol-1-carboxamide] | 0.421 µM | 0.165 µM | > 30 µM |
